31 molecules from US20110251379A1, “COMPOUNDS USEFUL FOR TREATING NEURODEGENERATIVE DISORDERS” (Satori Pharmaceuticals, Inc., priority 2010, published 2011) can be followed below.

The structures appear in SMILES notation. A value given as a limit tells only on which side of the number the result lay.

The first assay relates to amyloid-beta (1-42) peptide. Nature of the assay: ELISA assay of amyloid-beta (1-42) in conditioned media of 2B7 cells. In kind it is cell-based. Conditions: 5 h, Aβ-42, 2B7 cells, 5 hours; read-out: IC50 range. As to the method:
Compounds of the present invention, and extracts comprising said compounds, may be assayed as inhibitors of amyloid-beta (1-42) peptide in vitro or in vivo. Such assay methods are described in detail in U.S. Pat. No. 6,649,196, the entirety of which is hereby incorporated herein by reference.
In certain embodiments, provided compounds of the present invention, and extracts comprising said compounds, were assayed as inhibitors of amyloid-beta (1-42) peptide in vitro using an ELISA assay.
Capture Plate Prep: • 6E10 was diluted to 5.0 ug/mL in 100 mM NaHCO3 pH 8.2 (10 ug aliquot per 2 mL buffer); • 100 uL capture antibody solution was added to wells of 96 well plate; • Incubated overnight at 4° C. sealed; • Aspirated off capture antibody; and • Blocked with 250 uL of Blocking Buffer for 2-4 hours at rt sealed.
Conditioned Media: • Cultured 2B7 cells in 96 well plate with 250 uL of media per well until confluent; • Prepared serial dilution of compounds in DMSO at 100× the final desired concentration; • Washed wells with 2B7 cells lx with 250 uL of media; • Diluted DMSO stocks 1:100 into media and mix; and • Added 250 μL of media containing compounds (1% DMSO) to wells with 2B7 cells for 5 hours at 37° C.
Elisa Sample Prep: • Diluted conditioned media 1:2 into blocking buffer; • NOTE: If assaying for A-Beta 1-40 or total A-Beta, then diluted above sample 1:10 with a 50/50 mixture of non-conditioned media containing 1% DMSO and blocking buffer.
Standard Curve Sample Prep: • Diluted appropriate A-Beta peptide stock (stored in 1% NH4OH) to 200 μg/mL in blocking buffer; • Prepared a 1:2 serial dilution from the 200 μg/mL sample (150 μL into 150 μL blocking buffer); and • Added equal volume of standard curve samples to non-conditioned media with 1% DMSO.
Overnight Sample Incubation: • Aspirated blocking buffer from blocked plate; • Added 100 μL of samples to wells of plate (samples will be 50% media with 1% DMSO and 50% blocking buffer; and • Incubated overnight at 4° C. sealed.
Addition of Detection Antibody: • Aspirated off samples, wash 2× with 250 μL blocking buffer; and • Added 100 μL detection antibody labeled with HRP at 0.25 ug/mL in blocking buffer for 4 hours at room temperature sealed.
Final Wash and Readout: • Aspirated wells, wash 5× with 250 μL of PBS-T (2 minutes each wash at 30 RPM); • Added 100 μL TMB for 20 minutes; • Added 100 μL of 1M H3PO4; and • Read at 450 nm.
Coating Buffer (100 mM NaHCO3 pH 8.2)
PBS-T (PBS with 0.05% Tween-20)
Blocking Buffer (1% BSA in PBS-T)
Usually IC50 stands for the midpoint of a concentration-inhibition curve. On to `CC(=O)O[C@@H]([C@H]1C[C@@H](C)C2=C(O1)[C@H](O)[C@@]1(C)[C@@H]3CC[C@H]4C(C)(C)[C@@H](O[C@@H]5OC[C@@H](O)[C@H](O)[C@H]5O)CC[C@@]45C[C@@]35CC[C@]21C)C(C)(C)O`, for which the IC50 is ≤ 1 µM.
As for `C[C@@H]1C[C@H]([C@H](O)C(C)(C)O)OC2=C1[C@@]1(C)CC[C@@]34C[C@@]35CC[C@H](O[C@@H]3OC[C@@H](O)[C@H](O)[C@H]3O)C(C)(C)[C@@H]5CC[C@H]4[C@]1(C)[C@H]2O`, the IC50 was in the range of 1 to 10 µM.
Still for that read-out and setting: then `CC(=O)O[C@@H]([C@H]1C[C@@H](C)C2=C(O1)[C@H](O)[C@@]1(C)[C@@H]3CC[C@H]4C(C)(C)[C@@H](O)CC[C@@]45C[C@@]35CC[C@]21C)C(C)(C)O`, with < 10 µM; and `CC(=O)O[C@@H]([C@H]1C[C@@H](C)C2C(O1)C(=O)[C@@]1(C)[C@@H]3CC[C@H]4C(C)(C)[C@@H](O)CC[C@@]45C[C@@]35CC[C@]21C)C(C)(C)O` (stereo partly drawn), with 1 to 10 µM.
The same measure, in the same setting: in the case of `C[C@@H]1C[C@H]([C@H](O)C(C)(C)O)OC2C(=O)[C@@]3(C)[C@@H]4CC[C@H]5C(C)(C)[C@@H](O[C@@H]6OC[C@@H](O)[C@H](O)[C@H]6O)CC[C@@]56C[C@@]46CC[C@]3(C)C21` (stereo partly drawn) it was > 10 µM; in that of `C[C@@H]1C[C@H]([C@@H]2OCOC2(C)C)OC2C1[C@@]1(C)CC[C@@]34C[C@@]35CC[C@H](O[C@@H]3OC[C@@H](O)[C@H](O)[C@H]3O)C(C)(C)[C@@H]5CC[C@H]4[C@]1(C)[C@H]2O` (stereo partly drawn), 1 to 10 µM.
The same measure, in the same setting: in the case of `C[C@@H]1C[C@H]([C@@H]2OC(=O)OC2(C)C)OC2=C1[C@@]1(C)CC[C@@]34C[C@@]35CC[C@H](O[C@@H]3OC[C@@H](O)[C@H](O)[C@H]3O)C(C)(C)[C@@H]5CC[C@H]4[C@]1(C)[C@H]2O` it was 1 to 10 µM.
Regarding `C[C@@H]1C[C@H]([C@@H]2OC(=O)OC2(C)C)OC2C(O)[C@@]3(C)[C@@H]4CC[C@H]5C(C)(C)[C@@H](O[C@@H]6OC[C@@H](O)[C@H](O)[C@H]6O)CC[C@@]56C[C@@]46CC[C@]3(C)C21` (stereo partly drawn), the IC50 lay in the range of 1 to 10 µM.
Still for that read-out and setting: then `CC(=O)OC(C)(C)[C@@H](O)[C@H]1C[C@@H](C)C2=C(O1)[C@H](O)[C@@]1(C)[C@@H]3CC[C@H]4C(C)(C)[C@@H](OC5OC[C@@H](O)[C@H](O)[C@H]5O)CC[C@@]45C[C@@]35CC[C@]21C` (stereo partly drawn), with 1 to 10 µM; and `CCC(=O)OC(C)(C)[C@H]1OC23O[C@@H]1C[C@@H](C)[C@@H]2[C@@]1(C)CC[C@@]24C[C@@]25CC[C@H](O[C@@H]2OC[C@@H](O)[C@H](O)[C@H]2O)C(C)(C)[C@@H]5CC[C@H]4[C@]1(C)[C@H]3O`, with 1 to 10 µM.
On the same count and under the same terms, in the case of `CO[C@@H]([C@H]1C[C@@H](C)C2C(O1)[C@H](O)[C@@]1(C)[C@@H]3CC[C@H]4C(C)(C)[C@@H](O[C@@H]5OC[C@@H](O)[C@H](O)[C@H]5O)CC[C@@]45C[C@@]35CC[C@]21C)C(C)(C)O` (stereo partly drawn) it was 1 to 10 µM; in that of `CCC(=O)O[C@@H]([C@H]1C[C@@H](C)C2C(O1)C(O)[C@@]1(C)[C@@H]3CC[C@H]4C(C)(C)[C@@H](O[C@@H]5OC[C@@H](O)[C@H](O)[C@H]5O)CC[C@@]45C[C@@]35CC[C@]21C)C(C)(C)O` (stereo partly drawn), ≤ 1 µM.
The same measure, in the same setting: then `CC(=O)O[C@@H]([C@H]1C[C@@H](C)C2C(O1)C(N)[C@@]1(C)[C@@H]3CC[C@H]4C(C)(C)[C@@H](O[C@@H]5OC[C@@H](O)[C@H](O)[C@H]5O)CC[C@@]45C[C@@]35CC[C@]21C)C(C)(C)O` (stereo partly drawn), with 1 to 10 µM.
In the case of `CC(=O)OC(C)(C)[C@@H](O)[C@H]1C[C@@H](C)C2C(O1)[C@H](O)[C@@]1(C)[C@@H]3CC[C@H]4C(C)(C)[C@@H](O[C@@H]5OC[C@@H](O)[C@H](O)[C@H]5O)CC[C@@]45C[C@@]35CC[C@]21C` (stereo partly drawn), the IC50 was 1 to 10 µM.
With `COCO[C@@H]([C@H]1C[C@@H](C)C2=C(O1)[C@H](O)[C@@]1(C)[C@@H]3CC[C@H]4C(C)(C)[C@@H](O[C@@H]5OC[C@@H](O)[C@H](O)[C@H]5O)CC[C@@]45C[C@@]35CC[C@]21C)C(C)(C)O`, the IC50 was 1 to 10 µM.
As for `C[C@@H]1C[C@H]([C@H](O)C(C)(C)OC(=O)O)OC2C1[C@@]1(C)CC[C@@]34C[C@@]35CC[C@H](O[C@@H]3OC[C@@H](O)[C@H](O)[C@H]3O)C(C)(C)[C@@H]5CC[C@H]4[C@]1(C)[C@H]2O` (stereo partly drawn), the half-maximal inhibitory concentration (IC50) lay in the range of 1 to 10 µM.
Same read-out and setting: then `C[C@@H]1C[C@H](C(=O)C(C)(C)O)OC2C1[C@@]1(C)CC[C@@]34C[C@@]35CC[C@H](O[C@@H]3OC[C@@H](O)[C@H](O)[C@H]3O)C(C)(C)[C@@H]5CC[C@H]4[C@]1(C)[C@H]2O` (stereo partly drawn), with > 10 µM; and `C[C@@H]1C[C@H]([C@H](OC(N)=O)C(C)(C)O)OC2C1[C@@]1(C)CC[C@@]34C[C@@]35CC[C@H](O[C@@H]3OC[C@@H](O)[C@H](O)[C@H]3O)C(C)(C)[C@@H]5CC[C@H]4[C@]1(C)[C@H]2O` (stereo partly drawn), with 1 to 10 µM.
The same measure, in the same setting: then `COCO[C@H]1[C@H](O)COC(O[C@H]2CC[C@]34C[C@]35CC[C@]3(C)C6C(O[C@@H]([C@@H]7OC(=O)OC7(C)C)C[C@H]6C)[C@H](O)[C@@]3(C)[C@@H]5CC[C@H]4C2(C)C)[C@@H]1O` (stereo partly drawn), with 1 to 10 µM; and `CC(=O)O[C@H]1CC[C@]23C[C@]24CC[C@]2(C)C5[C@H](C)C[C@H]([C@H](OC(C)=O)C(C)(C)O)O[C@@H]5[C@H](O)[C@@]2(C)[C@@H]4CC[C@H]3C1(C)C` (stereo partly drawn), with ≤ 1 µM; and `CC(=O)O[C@@H]([C@H]1C[C@@H](C)C2C(O1)[C@H](O)[C@@]1(C)[C@@H]3CC[C@H]4C(C)(C)[C@@H](OC(CO)OCCO)CC[C@@]45C[C@@]35CC[C@]21C)C(C)(C)O` (stereo partly drawn), with ≤ 1 µM.
The same measure, in the same setting: in the case of `CC(=O)O[C@@H]([C@H]1C[C@@H](C)C2C(O1)[C@H](O)[C@@]1(C)[C@@H]3CC[C@H]4C(C)(C)[C@@H](OC(=O)CCC(=O)O)CC[C@@]45C[C@@]35CC[C@]21C)C(C)(C)O` (stereo partly drawn) it was 1 to 10 µM; in that of `CC(=O)O[C@@H]([C@H]1C[C@@H](C)C2=C(O1)[C@H](O)[C@@]1(C)[C@@H]3CC[C@H]4C(C)(C)[C@@H](O[C@H]5CN(O)CCO5)CC[C@@]45C[C@@]35CC[C@]21C)C(C)(C)O`, ≤ 1 µM; in that of `CC(=O)O[C@@H]([C@H]1C[C@@H](C)C2C(O1)[C@H](O)[C@@]1(C)[C@@H]3CC[C@H]4C(C)(C)[C@@H](O[C@H]5CN(O)CCO5)CC[C@@]45C[C@@]35CC[C@]21C)C(C)(C)O` (stereo partly drawn), ≤ 1 µM.
Take `CC(=O)O[C@@H]([C@H]1C[C@@H](C)C2C(O1)[C@H](O)[C@@]1(C)[C@@H]3CC[C@H]4C(C)(C)[C@@H](OCC(=O)O)CC[C@@]45C[C@@]35CC[C@]21C)C(C)(C)O` (stereo partly drawn): the IC50 fell in the range of 1 to 10 µM.
Same read-out and setting: then `CC(=O)O[C@@H]([C@H]1C[C@@H](C)C2C(O1)[C@H](O)[C@@]1(C)[C@@H]3CC[C@H]4C(C)(C)[C@@H](O[C@H]5CN(C)CCO5)CC[C@@]45C[C@@]35CC[C@]21C)C(C)(C)O` (stereo partly drawn), with ≤ 1 µM; and `CN[C@H]1CC[C@]23C[C@]24CC[C@]2(C)C5C(O[C@@H]([C@H](OC(C)=O)C(C)(C)O)C[C@H]5C)[C@H](O)[C@@]2(C)[C@@H]4CC[C@H]3C1(C)C` (stereo partly drawn), with 1 to 10 µM.
Still for that read-out and setting: then `CC(=O)O[C@@H]([C@H]1C[C@@H](C)C2C(O1)[C@H](O)[C@@]1(C)[C@@H]3CC[C@H]4C(C)(C)[C@@H](O[C@H]5CNCCO5)CC[C@@]45C[C@@]35CC[C@]21C)C(C)(C)O` (stereo partly drawn), with ≤ 1 µM; and `CC(=O)O[C@@H]([C@H]1C[C@@H](C)C2C(O1)[C@H](O)[C@@]1(C)[C@@H]3CC[C@H]4C(C)(C)[C@H](NO)CC[C@@]45C[C@@]35CC[C@]21C)C(C)(C)O` (stereo partly drawn), with 1 to 10 µM; and `COCCN[C@H]1CC[C@]23C[C@]24CC[C@]2(C)C5C(O[C@@H]([C@H](OC(C)=O)C(C)(C)O)C[C@H]5C)[C@H](O)[C@@]2(C)[C@@H]4CC[C@H]3C1(C)C` (stereo partly drawn), with 1 to 10 µM.
On the same count and under the same terms, then `COCCN1CCOC(O[C@H]2CC[C@]34C[C@]35CC[C@]3(C)C6C(O[C@@H]([C@H](OC(C)=O)C(C)(C)O)C[C@H]6C)[C@H](O)[C@@]3(C)[C@@H]5CC[C@H]4C2(C)C)C1` (stereo partly drawn), with ≤ 1 µM.

Still in this assay, the particulars now being: Aβ-42, 10 umol/L; read-out: % Inhibition (range).
The term inhibition denotes the relative decrease from the control value, in per cent. As to `CC(=O)O[C@@H]([C@H]1C[C@@H](C)C2=C(O1)[C@H](O)[C@@]1(C)[C@@H]3CC[C@H]4C(C)(C)[C@@H](O)CC[C@@]45C[C@@]35CC[C@]21C)C(C)(C)O`, the inhibition at 10 µM was > 75%.

Staying with this assay, now noted: Aβ-42, 100 umol/L; read-out: % Inhibition (range).
Consider `CCC(=O)O[C@@H]([C@H]1C[C@@H](C)C2C(O1)C(O)[C@@]1(C)[C@@H]3CC[C@H]4C(C)(C)[C@@H](O[C@@H]5OC[C@@H](O)[C@H](O)[C@H]5O)CC[C@@]45C[C@@]35CC[C@]21C)C(C)(C)O` (stereo partly drawn), for which the inhibition at 100 µM lay within 25 to 75%.
